Assay [1] relates to PKR. Put plainly: PKR phosphorylation in cells transformed with v-erbB in the presence of selective phosphatase inhibitors. Type of assay: cell-based. The note with it: in the presence of the inhibitor. The text has this:
(§1) PKR is not phosphorylated (i.e., […]) in cells transformed with elements of the ras pathway, such as v-erbB. To determine whether serine-threonine phosphatases are responsible for the lack of phosphorylation of PKR in these cells, selective inhibitors of the phosphatases are employed to assess the role of each phosphatase. […] Inhibitors specific for PP1 or PP2C have no effects on PKR phosphorylation.

In assay [2] the test system is reovirus. Put plainly: Susceptibility of phosphatase inhibitor-treated transformed cells to reovirus infection. The note with it: okadaic acid-treated cells. Type of assay: cell-based.
From the text: as §1

The subject of assay [3] is PP2A. As to conditions: cited from earlier work.
For assay [4], the system named is PP1. The note with it: cited from earlier work.
Assay [5] relates to PP2B. As to conditions: cited from earlier work.

On to `C=C1[C@@H](O)[C@@H]2O[C@]3(CC[C@H](/C=C/[C@@H](C)[C@@H]4CC(C)=C[C@@]5(O[C@H](C[C@@](C)(O)C(=O)O)CC[C@H]5O)O4)O3)CC[C@H]2O[C@@H]1[C@@H](O)C[C@H](C)[C@H]1O[C@@]2(CCCCO2)CC[C@H]1C` [okadaic acid], for which, in assay [1], the “effect on PKR phosphorylation” value was “PKR becomes phosphorylated”. In addition, the “susceptibility of treated cells to reovirus infection” value in assay [2] was “become susceptible to reovirus infection”. For the same compound, the effectiveness against phosphatase entry in assay [3] is reported as “most effective against PP2A”; in assay [4] it was “less so against PP1”; in assay [5], “only marginally against PP2B”.

The record behind these values is patent US20050019308A1, “Oncolytic viruses for the treatment of neoplasms having activated PP2A or Rac” (Oncolytics Biotech Inc., priority 2003, published 2005).
